Source: patent US20170319552A1, “ATROPISOMERS OF TRIAZOLE DERIVATIVE” (ARDEA BIOSCIENCES, INC., priority 2016, published 2017)
Like-named read-outs stand apart in the source and are kept apart here.

Legend:
[1] = Atropisomer interconversion, thermal challenge in organic solvent (acetonitrile); assay type: physicochemical
Description: (§1) The individual atropisomers of Compound (I), atropisomer 1 and atropisomer 2 (elution order from normal-phase chiral chromatography) were exposed to various conditions, including thermal challenge in both organic and aqueous media and exposure to simulated biological conditions, to ascertain whether they readily interconvert.
Samples of each separate atropisomers were held at 60° C. for four days and then analyzed by high performance liquid chromatography (AGMS02 Agilent 1100) on a normal phase amylose-based chiral column (ChiralPak IA-3, 3 μm, 100×4.6 mm, column 244), using isocratic elution and UV detection at 226 nm (see example 1).

[2] = Atropisomer interconversion, thermal challenge in aqueous solvent (dilute sodium bicarbonate); assay type: physicochemical
Description: as §1
Atropisomer 1 was dissolved in dilute aqueous sodium bicarbonate solution. Atropisomer 2 was dissolved in dilute aqueous sodium bicarbonate solution. […] Samples of the resulting solutions were exposed to room temperature (rt), 60° C., and 100° C. for four days. After four days, the samples were concentrated to dryness (SpeedVac evaporator—DNA120, property H001630), redissolved in acetonitrile and analyzed by high performance liquid chromatography (AGMS02 Agilent 1100) on a normal phase amylose-based chiral column (ChiralPak IA-3, 3 μm, 100×4.6 mm, column 244), using isocratic elution and UV detection at 226 nm (see example 1). […] Sample chromatograms at t0, 60° C., and 100° C. after four days, are depicted in FIG. 3A, FIG. 3B and FIG. 3C respectively.

human URAT1 transporter = molecular target: T1, human URAT1 transporter (Homo sapiens, UniProt Q96S37); assay: HEK293 hURAT1 stable cell-line uric acid uptake assay; assay type: cell-based; settings: from IC50 values of table 5
T1 sequence (Q96S37 1-553): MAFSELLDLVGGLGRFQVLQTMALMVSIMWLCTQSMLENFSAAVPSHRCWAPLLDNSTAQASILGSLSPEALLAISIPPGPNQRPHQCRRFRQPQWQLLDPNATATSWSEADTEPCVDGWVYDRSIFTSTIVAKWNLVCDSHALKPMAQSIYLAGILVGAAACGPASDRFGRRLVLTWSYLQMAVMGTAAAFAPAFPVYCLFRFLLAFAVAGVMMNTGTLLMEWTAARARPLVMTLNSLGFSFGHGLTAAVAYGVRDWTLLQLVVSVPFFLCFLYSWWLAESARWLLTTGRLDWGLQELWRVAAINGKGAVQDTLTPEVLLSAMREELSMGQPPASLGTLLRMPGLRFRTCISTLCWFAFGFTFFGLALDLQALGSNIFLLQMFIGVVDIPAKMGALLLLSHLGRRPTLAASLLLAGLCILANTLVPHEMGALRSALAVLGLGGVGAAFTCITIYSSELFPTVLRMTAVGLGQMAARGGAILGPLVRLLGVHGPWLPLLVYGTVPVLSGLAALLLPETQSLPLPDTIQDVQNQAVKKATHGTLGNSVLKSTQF
Description: Generation and Screening of HEK293 Stable Cell Lines—HEK293 human embryonic kidney cells (ATCC #CRL-1573, Manassas, Va.) were propagated in EMEM tissue culture medium as described by ATCC in an atmosphere of 5% CO2 and 95% air. HEK293 cells were transfected with the expression plasmids described above (pCMV6-neo URAT1 or pCMV6-neo OAT4) using Lipofectamine 2000 (Invitrogen, Carlsbad, Calif.), according to the manufacturer's instructions. The lipid/DNA transfection mixture was removed after five hours on the cells and fresh growth medium was added. After another 24 hr the cells were split into 10 cm plates. The next day G418 (Gibco, Carlsbad, Calif.) selection agent was added to the growth medium at a final concentration of 0.5 mg/ml. Fresh G418-containing medium was added every three days until drug-resistant colonies were obtained and also when the majority of mock-transfected cells were dead. […]
HEK293 hURAT 1 Stable Cell-Line Uric Acid Uptake Assay—Cells were seeded onto 96-well poly-D-lysine coated tissue culture plates at a density of 1.25×10^5 cells per well and grown at 37° C. overnight. […] Cells were lysed by adding 150 μl of MicroScint 20 scintillation fluid (PerkinElmer) to each well and radioactivity was counted the following day using a Beckman TopCount plate reader.
Calculation—The IC50 was calculated using Sigmoidal Dose-Response Model using XLFIT(IDBS, Alameda, Calif.).

[3] = In vitro metabolism, incubations with human liver microsomes; assay type: in vitro ADME
Description: Human liver microsomes (0.5 mg/mL; mixed gender, ultrapooled, BD Biosciences, catalog number 452117) were incubated at 37±1° C. in 0.2 mL (final volume) of incubation mixtures containing potassium phosphate buffer (100 mM, pH7.4), MgCl2 (3 mM), NADPH (1 mM), and the atropisomers (1, 10, or 50 μM) (all experiments performed in duplicate). Stock solutions of atropisomers were prepared with DMSO at 100 mM. The final concentration of DMSO in the incubation was at or less than 0.05%. Reactions were initiated by addition of NADPH solution and terminated at predetermined time point (30 min) by addition of stop reagent (300 μL chilled acetonitrile containing 0.1 μM of 7-hydroxycoumarin as an internal standard). After incubation, microsomal proteins were precipitated by centrifugation at 3300×g for 15 min at 4° C. Supernatant fractions were analyzed by LC-MS/MS.
HPLC mass spectrometer system: An API4000 triple quadrupole mass spectrometer equipped with electrospray ionization ion source was used for quantitation and operated in positive mode. The HPLC system consisted of a CTC Analytics PAL autosampler, an Agilent 1100 series degasser (G1379A), and an Agilent 1100 series binary pump (G1312A). […]
The formation of M3, M3c, M4 and M6 from each atropisomer in liver microsomal and recombinant CYP incubations was determined, based on the peak area ratio of analyte over internal standard (IS)

[4] = In vivo human metabolism, plasma and urine pharmacokinetics after single oral dose of racemic Compound (I)
Description: Plasma samples were collected prior to dosing (within 30 minutes before dosing) and at the following timepoints: 0.5, 1, 1.5, 2, 3, 4, 5, 6, 8, 10, 12, and 24 hours postdose. Urine was also collected. […] The supernatant was diluted with injection solvent and analyzed by HPLC with tandem mass spectrometry (LC/MS/MS). […] The calibration curves were linear over the concentration range between 5.00 ng/mL and 2000 ng/mL with a lower limit of quantification (LLOQ) of 5.00 ng/mL.
Using the above data, the following plasma pharmacokinetic parameters were calculated using validated Phoenix WinNonlin, version 6.3 (Pharsight Corporation, Mountain View, Calif.) and are shown (geometric mean 95% CI) in tables 11, 12, and 13 below.
• Cmax: Maximum observed concentration (μg/mL) • Tmax: Time of occurrence of maximum observed concentration (hr) • AUC0-24: Area under plasma concentration-vs-time curve, from time 0 to 24 hours postdose (μg·hr/mL) • C24: Concentration 24 hours post dose (μg/mL) • t1/2: Apparent terminal half-life (hr)

Solubility in water = assay type: physicochemical
[5] = Plasma Concentration (Mean), single oral 400 mg racemic Compound (I), human
[6] = Urine PK Parameters (Geometric mean, CI 95%), single oral 400 mg racemic Compound (I), human
[7] = plasma, geometric mean, single oral 400 mg racemic Compound (I), human

With `O=C(O)CSc1nnc(Br)n1-c1ccc(C2CC2)c2ccccc12` (single isomer, unassigned) [Atropisomer 2, (+)-2-(5-bromo-4-(4-cyclopropylnaphthalen-1-yl)-4H-1,2,4-triazol-3-ylthio)acetic acid] the “% Atropisomer 1” value ([1]; acetonitrile 0.25 mg/mL, t0) was 1.0%, the “% Atropisomer 2” value ([1]; acetonitrile 0.25 mg/mL, t0) was 99.0% and the “% Atropisomer 1” value ([1]; acetonitrile, 60° C. 4 days) was 1.0%. For the same compound, the “% Atropisomer 2” value ([1]; acetonitrile, 60° C. 4 days) was 99.0%, the “% Atropisomer 1” value ([2]; 60° C. 4 days) was 0.4% and the “% Atropisomer 2” value ([2]; 60° C. 4 days) was 99.6%. The “% Atropisomer 1” value ([2]; 100° C. 4 days) was 0.6%, the “% Atropisomer 2” value ([2]; 100° C. 4 days) was 99.4% and the “% Atropisomer 1” value ([2]; rt, 4 days) was 0.4%. The “% Atropisomer 2” value ([2]; rt, 4 days) was 99.6%, the “% Atropisomer 1” value ([2]; t0 (control)) was 0.4% and the “% Atropisomer 2” value ([2]; t0 (control)) was 99.6%. The “Greater inhibition of URAT1 than atropisomer 1” value (human URAT1 transporter) was “approximately 4 fold”, the M3c formation [3] was “only trace levels” and the Mean plasma concentration ([4]; 0.5 hr postdose, single oral 400 mg Compound (I) racemic mixture, adult male subjects) was 108 ng/mL. It also gave a Mean plasma concentration ([4]; 1 hr postdose, single oral 400 mg Compound (I) racemic mixture, adult male subjects) of 2573 ng/mL, a Mean plasma concentration ([4]; 1.5 hr postdose, single oral 400 mg Compound (I) racemic mixture, adult male subjects) of 4975 ng/mL and a Mean plasma concentration ([4]; 2 hr postdose, single oral 400 mg Compound (I) racemic mixture, adult male subjects) of 5765 ng/mL. The Mean plasma concentration ([4]; 3 hr postdose, single oral 400 mg Compound (I) racemic mixture, adult male subjects) was 6921 ng/mL, the Mean plasma concentration ([4]; 4 hr postdose, single oral 400 mg Compound (I) racemic mixture, adult male subjects) was 5577 ng/mL and the Mean plasma concentration ([4]; 5 hr postdose, single oral 400 mg Compound (I) racemic mixture, adult male subjects) was 4314 ng/mL. The Mean plasma concentration ([4]; 6 hr postdose, single oral 400 mg Compound (I) racemic mixture, adult male subjects) was 2322 ng/mL, the Mean plasma concentration ([4]; 8 hr postdose, single oral 400 mg Compound (I) racemic mixture, adult male subjects) was 918 ng/mL and the Mean plasma concentration ([4]; 10 hr postdose, single oral 400 mg Compound (I) racemic mixture, adult male subjects) was 495 ng/mL. The Mean plasma concentration ([4]; 12 hr postdose, single oral 400 mg Compound (I) racemic mixture, adult male subjects) was 309 ng/mL, the Mean plasma concentration ([4]; 24 hr postdose, single oral 400 mg Compound (I) racemic mixture, adult male subjects) was 63 ng/mL and the AUC0-24 [4, 5] was 33800 ng·h/mL. For the same compound, the Cmax [4, 5] was 8200 ng/mL, the Ae0-24 [4, 6] was 101 mg and the CLR0-24 [4, 6] was 51.6 mL/min. The “AUC0-24: Area under plasma concentration-vs-time curve, from time 0 to 24 hours postdose” value [4, 7] was 32.7 µg·h/mL, the “C24 h: Concentration 24 hours post dose” value [4, 7] was 50.8 ng/mL and the “Cmax: Maximum observed concentration” value [4, 7] was 7920 ng/mL. For the same compound, the “t1/2: Apparent terminal half-life” value [4, 7] was 4.67 h, the “Tmax: Time of occurrence of maximum observed concentration” value ([4]; plasma, single oral 400 mg racemic Compound (I), human) was 3.00 h and the Mean plasma concentration ([4]; time 0 hr (prior to dosing), single oral 400 mg Compound (I) racemic mixture, adult male subjects) was 0 ng/mL.
`O=C(O)CSc1nnc(Br)n1-c1ccc(C2CC2)c2ccccc12` (racemic) [Compound (I), 2-(5-bromo-4-(4-cyclopropylnaphthalen-1-yl)-4H-1,2,4-triazol-3-ylthio)acetic acid] gave a concentration at 0.5 h ([4]; male, human, plasma, po, 400 mg, 0.5 hr postdose, single oral 400 mg Compound (I) racemic mixture, adult male subjects) of 157 ng/mL, a concentration at 1 h ([4]; male, human, plasma, po, 400 mg, 1 hr postdose, single oral 400 mg Compound (I) racemic mixture, adult male subjects) of 3900 ng/mL and a concentration at 1.5 h ([4]; male, human, plasma, po, 400 mg, 1.5 hr postdose, single oral 400 mg Compound (I) racemic mixture, adult male subjects) of 7860 ng/mL. The concentration at 2 h ([4]; male, human, plasma, po, 400 mg, 2 hr postdose, single oral 400 mg Compound (I) racemic mixture, adult male subjects) was 9380 ng/mL, the concentration at 3 hr ([4]; male, human, plasma, po, 400 mg, 3 hr postdose, single oral 400 mg Compound (I) racemic mixture, adult male subjects) was 11400 ng/mL and the concentration at 4 hr ([4]; male, human, plasma, po, 400 mg, 4 hr postdose, single oral 400 mg Compound (I) racemic mixture, adult male subjects) was 9080 ng/mL. For the same compound, the concentration at 5 hr ([4]; male, human, plasma, po, 400 mg, 5 hr postdose, single oral 400 mg Compound (I) racemic mixture, adult male subjects) was 6980 ng/mL, the concentration at 6 hr ([4]; male, human, plasma, po, 400 mg, 6 hr postdose, single oral 400 mg Compound (I) racemic mixture, adult male subjects) was 3810 ng/mL and the concentration at 8 hr ([4]; male, human, plasma, po, 400 mg, 8 hr postdose, single oral 400 mg Compound (I) racemic mixture, adult male subjects) was 1530 ng/mL. The concentration at 10 hr ([4]; male, human, plasma, po, 400 mg, 10 hr postdose, single oral 400 mg Compound (I) racemic mixture, adult male subjects) was 815 ng/mL, the concentration at 12 hr ([4]; male, human, plasma, po, 400 mg, 12 hr postdose, single oral 400 mg Compound (I) racemic mixture, adult male subjects) was 503 ng/mL and the concentration at 24 h ([4]; male, human, plasma, po, 400 mg, 24 hr postdose, single oral 400 mg Compound (I) racemic mixture, adult male subjects) was 84 ng/mL. It also gave an AUC(0-t) ([4]; male, human, plasma, po, 400 mg, Plasma Concentration (Mean), single oral 400 mg racemic Compound (I), human, read-out: AUC0-24) of 54900 ng·h/mL, a Cmax ([4]; male, human, plasma, po, 400 mg, Plasma Concentration (Mean), single oral 400 mg racemic Compound (I), human, read-out: Cmax) of 13500 ng/mL and a Cmax ([4]; male, human, plasma, po, 400 mg, plasma, geometric mean, single oral 400 mg racemic Compound (I), human, read-out: Cmax: Maximum observed concentration) of 12800 ng/mL. For the same compound, the half-life ([4]; male, human, plasma, po, 400 mg, plasma, geometric mean, single oral 400 mg racemic Compound (I), human, read-out: t1/2: Apparent terminal half-life (converted)) was 4.18 h, the concentration at 0 h ([4]; male, human, plasma, po, 400 mg, time 0 hr (prior to dosing), single oral 400 mg Compound (I) racemic mixture, adult male subjects) was 0 ng/mL and the Tmax ([4]; male, human, plasma, po, 400 mg, read-out: Tmax: Time of occurrence of maximum observed concentration) was 3 h. For the same compound, the “AUC0-24: Area under plasma concentration-vs-time curve, from time 0 to 24 hours postdose” value [4, 7] was 52.9 µg·h/mL and the Solubility in water (Solubility in water) was “low”.
